The source of these data is ChEMBL document CHEMBL6096697, “Structure-Guided Discovery of Novel N4-(Substituted Thiazol-2-yl)-N2-(4-Substituted phenyl)pyrimidine-2,4-Diamines as Potent CDK2 and CDK9 Dual Inhibitors with High Oral Bioavailability” (J Med Chem, 2025).

Data set [1] concerns HeLa. The data set can be described thus: Induction of cell cycle arrest in human HeLa cells assessed as accumulation at sub-G1 phase at 1.8 uM incubated for 24 hrs by PI staining based flow cytometry (reference value: 1.89 +/- 0.56 %). Format: functional. For orientation: Flow cytometry measures light scatter and fluorescence of single cells or particles in a stream.
For data set [2], the system named is HeLa. The data set is described as follows: Induction of cell cycle arrest at G2/M phase in human HeLa cells assessed as decrease in p-Cdc2 level incubated for 48 hrs by Western blot analysis. Format: functional, cell-based. The conditions noted are these: dose <= 3.6 µM. In general terms: Immunoblotting shows a protein as a band on a membrane.
The subject of data set [3] is HCT-116. The data set is described as follows: Induction of cell cycle arrest at G2/M phase in human HCT-116 cells assessed as decrease in p-Cdc2 level at 0.4 uM by Western blot analysis. Format: functional, cell-based. The conditions noted are these: time <= 48.0 hrs.
Data set [4] deals with HeLa. The data set can be described thus: Induction of cell cycle arrest at G2/M phase in human HeLa cells assessed as decrease in p-Cdc2 level at 1.8 uM by Western blot analysis. Type of data set: functional, cell-based. The conditions noted are these: time <= 48.0 hrs.
Data set [5] has as its system HeLa. The data set is described as follows: Induction of apoptosis in human HeLa cells assessed as viable cells at 0.9 uM incubated for 24 hrs by PI staining based flow cytometry (reference value: 68.9 %). Format: functional. The conditions noted are these: read-out: Activity.
In data set [6] the test system is HeLa. The data set is described as follows: Induction of apoptosis in human HeLa cells assessed as necrotic cells at 0.9 uM incubated for 24 hrs by PI staining based flow cytometry (reference value: 25.5 %). Type of data set: functional.
The subject of data set [7] is HeLa. The data set is described as follows: Induction of apoptosis in human HeLa cells assessed as viable cells at 3.6 uM incubated for 24 hrs by PI staining based flow cytometry (reference value: 68.9 %). Type of data set: functional. Conditions: read-out: Activity.
A short description of data set [8]: Tmax in Sprague-Dawley rat at 2 mg/kg, iv measured for 36 hrs by MRM analysis. Format: ADME, organism-based. Conditions: in vivo.
Data set [9] is described as follows: MRT (0 to t) in Sprague-Dawley rat at 10 mg/kg, po measured for 36 hrs by MRM analysis. Type of data set: ADME, organism-based. The conditions noted are these: in vivo.
Data set [10] has as its system HCT-116. The data set is described as follows: Antitumor activity against human HCT-116 cells xenografted in Balb/c-nu nude mouse at 35 mg/kg/day, po treated for 7 days consecutively relative to control. Type of data set: functional. Conditions: HCT-116, 168 h, time 7 day, read-out: TGI. Background: Xenograft models place foreign cells or tissue in a host animal.

A word on the Tmax: it is the time from dosing to the highest level. As usually defined, the MRT last is the average time that molecules of a dose stay in the body. In the case of `Cc1cnc(Nc2ccc(S(N)(=O)=O)cc2)nc1Nc1nccs1`, the Activity is 1.28% with HeLa [1]; “Dose-dependent-effect” in the data set with HeLa [2]; “Time-dependent-effect” with HCT-116 [3]; “Time-dependent-effect” in the data set on HeLa [4]; 0.81% in the data set with HeLa [6]. The viability at 0.9 µM in the data set on HeLa [5] was determined as 29.1%. For the same molecule, in the data set with HeLa [7], the viability at 3.6 µM was determined as 11.7%. Also, the Tmax in data set [8] turned out to be 0.2 h. For the same molecule, the mean residence time MRT last at 36 h in data set [9] is 6.5 h. Further, the inhibition in vivo at 35 mg/kg/day in the data set with HCT-116 [10] is 39%.
